Data: article PMC8512054 (Molecules, 2021)
Where two headings read alike, the source gives them in different places.

How the values were obtained:
[1] = biological target: T1, MAO-B (Homo sapiens, UniProt P27338); parameters: purchased Sigma-Aldrich; method as in PMID 32246471; conditions: competitive inhibitor; read-out: Ki for MAO-B (earlier study); cited from earlier work
T1 sequence (P27338 1-520): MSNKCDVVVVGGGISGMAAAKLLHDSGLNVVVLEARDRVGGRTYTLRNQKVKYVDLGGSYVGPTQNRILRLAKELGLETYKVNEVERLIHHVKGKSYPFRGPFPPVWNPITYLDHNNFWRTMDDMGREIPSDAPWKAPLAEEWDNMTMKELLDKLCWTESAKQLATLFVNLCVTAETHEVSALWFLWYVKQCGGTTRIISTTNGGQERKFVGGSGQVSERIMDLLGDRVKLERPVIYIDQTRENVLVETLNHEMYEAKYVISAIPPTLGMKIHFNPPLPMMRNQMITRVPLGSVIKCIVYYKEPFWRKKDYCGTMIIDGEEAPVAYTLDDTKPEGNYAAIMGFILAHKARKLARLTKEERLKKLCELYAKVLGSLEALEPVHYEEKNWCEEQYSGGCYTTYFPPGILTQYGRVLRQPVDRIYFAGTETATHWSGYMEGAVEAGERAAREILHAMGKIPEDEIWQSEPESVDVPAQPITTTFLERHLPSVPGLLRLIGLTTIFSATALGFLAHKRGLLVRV

[2] = BBB permeation by PAMPA method; type: in vitro ADME; conditions: for Prediction (BBB permeation): class from experimental Pe; for Effective permeability (Pe): read-out: Experimental Pe
From the text: The CNS bioavailability of the molecules was further ascertained by the PAMPA method.

[3] = parameters: method as in PMID 29532412; conditions: PAMPA-BBB; cited from earlier work
[4] = biological target: T1, MAO-B; experiment: MAO-B enzyme-inhibition kinetics (Lineweaver–Burk and secondary plots); type: biochemical; parameters: purchased Sigma-Aldrich; conditions: for Mode of MAO-B inhibition: Lineweaver–Burk plots; for Ki: from secondary plot of Lineweaver–Burk slopes
From the text: The obtained results are represented in Figure 1.
Figure 1 Lineweaver–Burk plots for MAO-B inhibition by NEA1 and NEA3 (A,C), and their respective secondary plots (B,D) of the slopes vs. inhibitor concentrations.

[5] = biological target: T1, MAO-B; experiment: MAO-B inhibitor-reversibility analysis by dialysis; type: biochemical; parameters: purchased Sigma-Aldrich; conditions: for Reversibility of MAO-B inhibition: dialysis method; for Relative MAO-B activity, dialyzed (AD) / Relative MAO-B activity, undialyzed (AU): ~2 × IC50 (NEA1 0.032, NEA3 0.020, lazabemide 0.22, pargyline 0.28 μM); for Relative MAO-B activity, dialyzed (AD): dialysis 6 h; for Relative MAO-B activity, undialyzed (AU): preincubated 30 min
Experimental: The reversibility of MAO-B inhibition by NEA1 and NEA3 was evaluated using a standardized dialysis method. […] The activities in dialyzed (AD) and undialyzed (AU) samples were compared and reversibility patterns were determined.
Dialysis was performed for 6 h with a buffer change after 3 h with duplicate experiments.

[6] = biological target: BACE1 (Homo sapiens, UniProt P56817); experiment: BACE1 activity assay kit (β-secretase, CS0010), fluorescence; conditions: for remaining activity at 10 µM: read-out: % Residual Activity (at 10 µM) BACE1
Experimental: (§1) MAO inhibitory assay was assessed in accordance with the previously standardized methods of assessing recombinant MAO-A and MAO-B by using the substrates (0.06 mM kynuramine and 0.3 mM benzylamine, respectively) [38, 39, 40]. […] The enzymes and chemicals were purchased from Sigma-Aldrich (St. Louis, MO, USA).
(§2) Initially, the inhibitory activities of the synthesized compounds were identified at a concentration of 10 μM against MAO-A, MAO-B, and BACE1. […] The obtained IC50 values thus compared were used to deduce the SI values.

[7] = biological target: T2, recombinant MAO-A (Homo sapiens, UniProt P21397); experiment: MAO-A inhibitory assay (recombinant MAO-A, kynuramine substrate); conditions: for remaining activity at 10 µM: read-out: % Residual Activity (at 10 µM) MAO-A
T2 sequence (P21397 1-527): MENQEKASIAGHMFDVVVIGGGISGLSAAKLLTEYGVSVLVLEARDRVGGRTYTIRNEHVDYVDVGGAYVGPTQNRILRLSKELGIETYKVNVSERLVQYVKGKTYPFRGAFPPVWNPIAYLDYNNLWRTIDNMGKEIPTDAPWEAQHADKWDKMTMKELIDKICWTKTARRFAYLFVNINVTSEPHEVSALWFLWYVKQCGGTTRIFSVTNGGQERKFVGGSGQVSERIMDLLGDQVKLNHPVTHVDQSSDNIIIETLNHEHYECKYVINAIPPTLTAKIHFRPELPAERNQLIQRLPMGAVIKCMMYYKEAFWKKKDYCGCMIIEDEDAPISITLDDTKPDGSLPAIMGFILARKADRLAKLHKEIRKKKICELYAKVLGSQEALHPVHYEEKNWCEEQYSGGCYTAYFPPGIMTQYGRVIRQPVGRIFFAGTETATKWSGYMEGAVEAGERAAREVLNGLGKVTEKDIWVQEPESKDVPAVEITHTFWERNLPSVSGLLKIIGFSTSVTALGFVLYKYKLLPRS
Experimental: as §1, §2

[8] = biological target: T1, MAO-B; experiment: MAO-B inhibitory assay (recombinant MAO-B, benzylamine substrate); conditions: for Selectivity index (SI) for MAO-B as compared with MAO-A: from the IC50 values of MAO-A and MAO-B; for remaining activity at 10 µM: read-out: % Residual Activity (at 10 µM) MAO-B
Experimental: as §1, §2

Sequence of BACE1 (P56817 46-501): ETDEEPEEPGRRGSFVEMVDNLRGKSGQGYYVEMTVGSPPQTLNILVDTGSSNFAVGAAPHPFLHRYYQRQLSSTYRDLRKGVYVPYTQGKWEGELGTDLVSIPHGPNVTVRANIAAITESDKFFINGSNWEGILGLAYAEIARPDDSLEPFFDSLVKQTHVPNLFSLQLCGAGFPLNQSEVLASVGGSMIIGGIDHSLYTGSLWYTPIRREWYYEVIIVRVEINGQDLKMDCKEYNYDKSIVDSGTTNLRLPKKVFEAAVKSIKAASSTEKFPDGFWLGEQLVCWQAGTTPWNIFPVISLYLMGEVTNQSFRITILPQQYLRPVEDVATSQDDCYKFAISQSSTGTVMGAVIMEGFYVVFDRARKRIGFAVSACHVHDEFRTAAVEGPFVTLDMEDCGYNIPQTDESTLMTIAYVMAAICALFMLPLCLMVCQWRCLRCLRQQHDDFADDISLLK

SMILES | Effective permeability (Pe) [2] | Mode of MAO-B inhibition [4] | Ki [4] | Reversibility of MAO-B inhibition [5] | Relative MAO-B activity, dialyzed (AD) [5] | Relative MAO-B activity, undialyzed (AU) [5] | IC50 [6] | remaining activity at 10 µM [6] | IC50 [7] | remaining activity at 10 µM [7] | IC50 [8] | Selectivity index (SI) for MAO-B as compared with MAO-A [8] | remaining activity at 10 µM [8] | melting point | Ki [1] | Prediction (BBB permeation) [2] | Bibliography Pe [3] | Experimental Pe [2]
C=CC(=O)Nc1cccc([N+](=O)[O-])c1 [AD9, N-(3-nitrophenyl)prop-2 enamide] | – | – | – | – | – | – | – | – | – | – | – | – | – | – | 0.039 ± 0.005 µM | – | – | –
NCCc1ccc(O)c(O)c1 [Dopamine, reference compound] | 0.26 ± 0.04 ×10⁻⁶ cm/s | – | – | – | – | – | – | – | – | – | – | – | – | – | – | CNS− (CNS− (low BBB permeation predicted: Pe (10^−6 cm/s) < 2.00)) | 0.2 ×10⁻⁶ cm/s | –
CCn1cc(C(=O)O)c(=O)c2cc(F)c(N3CCNC(C)C3)c(F)c21 (stereo not drawn) [Lomefloxacin, reference compound] | 1.31 ± 0.51 ×10⁻⁶ cm/s | – | – | – | – | – | – | – | – | – | – | – | – | – | – | CNS− (CNS− (low BBB permeation predicted: Pe (10^−6 cm/s) < 2.00)) | – | –
CN1C(C(=O)Nc2ccccn2)=C(O)c2ccccc2S1(=O)=O [Piroxicam, reference compound] | – | – | – | – | – | – | – | – | – | – | – | – | – | – | – | CNS± (CNS± (BBB permeation uncertain: Pe (10^−6 cm/s) from 2.00 to 4.00)) | 2.5 ×10⁻⁶ cm/s | 2.37 ± 0.33 ×10^−6 cm/s

More lines, main results first:

Effective permeability (Pe) [2] | Mode of MAO-B inhibition [4] | Ki [4] | Reversibility of MAO-B inhibition [5] | Relative MAO-B activity, dialyzed (AD) [5] | Relative MAO-B activity, undialyzed (AU) [5] | IC50 [6] | remaining activity at 10 µM [6] | IC50 [7] | remaining activity at 10 µM [7] | IC50 [8] | Selectivity index (SI) for MAO-B as compared with MAO-A [8] | remaining activity at 10 µM [8] | melting point | SMILES | Ki [1] | Prediction (BBB permeation) [2] | Bibliography Pe [3] | Experimental Pe [2]
14.4 ± 0.35 ×10⁻⁶ cm/s | competitive | 0.013 ± 0.005 µM | reversible | 79.5% | 29.2% | 8.21 ± 0.03 µM | 34.9 ± 0.5% | > 40 µM | 91.9 ± 5.9% | 0.016 ± 0.001 µM | >2500.0 | 3.88 ± 0.6% | – | O=C(C=Cc1ccc([N+](=O)[O-])cc1)Nc1ccccc1 [NEA1, 3-(4-Nitrophenyl)-N-phenylacrylamide] | – | CNS+ (CNS+ (high BBB permeation predicted: Pe (10^−6 cm/s) > 4.00)) | – | –
13.5 ± 0.26 ×10⁻⁶ cm/s | – | – | – | – | – | – | 88.1 ± 0.3% | > 40 µM | 95 ± 0.5% | 5.28 ± 0.09 µM | >7.58 | 35.8 ± 6.2% | 224 to 226 °C | O=C(C=Cc1ccc([N+](=O)[O-])cc1)Nc1ccc(Cl)cc1 [NEA2, N-(4-Chlorophenyl)-3-(4-nitrophenyl)acrylamide] | – | CNS+ (CNS+ (high BBB permeation predicted: Pe (10^−6 cm/s) > 4.00)) | – | –
16.4 ± 0.17 ×10⁻⁶ cm/s | competitive | 0.0049 ± 0.0002 µM | reversible | 79.5% | 32.8% | 8.02 ± 0.13 µM | 34.4 ± 0.2% | 15.2 ± 0.6 µM | 61.9 ± 0.4% | 0.0092 ± 0.0003 µM | 1652.2 | 3.04 ± 0.5% | 208 to 210 °C | O=C(C=Cc1ccc([N+](=O)[O-])cc1)Nc1ccc(F)cc1 [NEA3, N-(4-Fluorophenyl)-3-(4-nitrophenyl)acrylamide] | – | CNS+ (CNS+ (high BBB permeation predicted: Pe (10^−6 cm/s) > 4.00)) | – | –
15.5 ± 0.62 ×10⁻⁶ cm/s | – | – | – | – | – | – | 61.2 ± 3% | > 40 µM | 85.6 ± 1.7% | 0.074 ± 0.02 µM | >540.5 | 9.52 ± 3.5% | 166 to 168 °C | O=C(C=Cc1ccc([N+](=O)[O-])cc1)NC1CCCCC1 [NEA4, N-Cyclohexyl-3-(4-nitrophenyl)acrylamide] | – | CNS+ (CNS+ (high BBB permeation predicted: Pe (10^−6 cm/s) > 4.00)) | – | –
15.5 ± 0.44 ×10⁻⁶ cm/s | – | – | – | – | – | 17.7 ± 1.7 µM | 44 ± 0.2% | > 40 µM | 83.5 ± 1.3% | 0.038 ± 0.003 µM | >1052.6 | 8.67 ± 2.3% | 200 to 203 °C | Cc1ccccc1NC(=O)/C=C/c1ccc([N+](=O)[O-])cc1 [NEA5, 3-(4-Nitrophenyl)-N-(O-tolyl)acrylamide] | – | CNS+ (CNS+ (high BBB permeation predicted: Pe (10^−6 cm/s) > 4.00)) | – | –
